Experimental data as given in patent US9757375B2, “Compounds that inhibit human DNA ligases and methods of treating cancer” (University of Maryland, Baltimore, priority 2007, dated 2017).
Like-named read-outs stand apart in the source and are kept apart here.

Columns and labels:
[1] = system: MCF10A cells; test: Screen for potentiation of DNA damaging agents (MMS, camptothecin, cis-platinum, 3 aminobenzamide, ionizing radiation); format: cell-based, human; details: for MMS: Ratios of IC50 MCF10A: compound alone vs combination with MMS (100 μM); for MMS: Ratios of IC50 MCF10A / IC50 ratios of non- and 3-AB treated cells MCF10A: 1 = no sensitization; for Radiosensitizers: IC50 ratios MCF10A: ionizing radiation; for % growth inhibition MCF10A [2 Gy] 5-15 uM: with 2 Gy ionizing radiation, tick mark only; for IC50 ratios of non- and 3-AB treated cells MCF10A: compound alone vs combination with 3-AB (2 mM)
Procedure, shortened: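 HCT116 colon cancer and MCF10A breast epithelial cells received compounds at 15 μM or 50 μM one day after plating; for ionizing radiation, cells were pre-incubated 1 h with 50 μM compound before 2 Gy. After 3 days, cells were lysed with Igepal CA-630 plus SYBR green, and DNA fluorescence served as the proliferation read-out.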

[2] = system: MCF10A cells; test: MTT cell growth assay; format: cell-based, human; details: for IC50: Homo sapiens, MCF-10A
Procedure, shortened: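 Seeded at 300 cells/well and allowed to adhere overnight, then serial compound dilutions in medium added for 5 days. MTT added for a further 4 h, formazan dissolved in isopropanol, and absorbance read at 560 nm.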

[3] = target: T1, hLigIIIβ (Homo sapiens, UniProt P49916); test: Radioactive gel-based DNA ligation assay; format: biochemical; details: grades ±, Ø (key not given)
T1 sequence (P49916 1-862 isoform P49916-4): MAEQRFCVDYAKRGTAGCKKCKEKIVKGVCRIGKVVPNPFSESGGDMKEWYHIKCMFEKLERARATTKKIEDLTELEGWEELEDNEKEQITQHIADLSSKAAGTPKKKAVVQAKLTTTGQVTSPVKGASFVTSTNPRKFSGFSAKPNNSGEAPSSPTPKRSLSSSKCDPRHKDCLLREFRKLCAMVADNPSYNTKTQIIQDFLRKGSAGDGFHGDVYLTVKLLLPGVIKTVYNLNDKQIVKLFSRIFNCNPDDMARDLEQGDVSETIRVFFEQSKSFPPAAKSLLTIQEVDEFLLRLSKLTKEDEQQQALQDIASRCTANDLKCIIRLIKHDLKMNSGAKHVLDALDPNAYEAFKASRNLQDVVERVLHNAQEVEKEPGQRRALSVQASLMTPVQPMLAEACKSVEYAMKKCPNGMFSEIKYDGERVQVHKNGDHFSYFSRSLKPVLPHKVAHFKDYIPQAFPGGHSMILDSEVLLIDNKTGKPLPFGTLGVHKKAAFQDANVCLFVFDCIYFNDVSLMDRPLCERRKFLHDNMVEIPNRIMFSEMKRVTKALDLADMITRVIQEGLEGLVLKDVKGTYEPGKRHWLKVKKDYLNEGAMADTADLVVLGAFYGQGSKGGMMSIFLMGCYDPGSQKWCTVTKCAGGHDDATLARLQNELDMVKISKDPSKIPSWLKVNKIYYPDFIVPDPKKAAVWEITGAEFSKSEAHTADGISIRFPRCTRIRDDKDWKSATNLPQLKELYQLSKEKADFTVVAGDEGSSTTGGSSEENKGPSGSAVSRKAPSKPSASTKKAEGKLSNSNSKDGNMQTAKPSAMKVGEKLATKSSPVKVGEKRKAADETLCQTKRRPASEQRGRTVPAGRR

[4] = system: Human DNA ligases I, III and IV and T4 DNA ligase; test: Step 3 of the ligation reaction: ligation of preadenylated nick by non-adenylated ligase; format: biochemical; details: for Mechanism: ligation step inhibited (3rd step): Table 5A
Experimental: To analyze step 3 of the ligation reaction, an adenylated labeled version of the 18-mer was prepared as described (24). The DNA substrate containing a preadenylated nick (0.5 pmol) and hLigI (0.05 pmol), hLigIIIβ (0.05 pmol), hLigIV/XRCC4 (0.1 pmol), or T4 DNA ligase (0.05 pmol) were incubated in ligation buffer without ATP, either in the presence or absence of the ligase inhibitors (100 μmol/L). Reactions were stopped by the addition of an equal volume of gel loading dye (95% formamide, 0.05% bromophenol blue, and 0.05% xylene cyanol). After heating at 95° C. for 5 min, DNA was separated by denaturing polyacrylamide gel electrophoresis. Labeled oligonucleotides were detected and quantitated in the dried gel by phosphorImager analysis (Molecular Dynamics).
Since the final two steps of the ligation reaction involve interactions with DNA, we examined the effects of the ligase inhibitors on the second (FIG. 3B) (The labeled ligase-adenylate form of human DNA ligases I, III and IV and T4 DNA ligase were incubated with a linear DNA substrate containing a single non-ligatable nick in the absence or presence of compounds 67, 82 and 189 (100 μM). After separation by denaturing gel electrophoresis, the labeled DNA-AMP complex was detected by phosphorimaging (26)) and third steps (FIG. 3C) of the ligation reaction using established assays (25,26) (Non-adenylated human DNA ligases I, III and IV and T4 DNA ligase were incubated with labeled DNA-AMP in the absence or presence of compounds 67, 82 and 189 (100 μM). After separation by denaturing gel electrophoresis, labeled ligated DNA was detected by phosphorimaging (25)).

[5] = cell growth, compound alone, read-out: IC50 (μM) MCF10A
[6] = sections 'high concentrations (~50 μM)' and 'active in vitro that decreased cell growth', same figures given in μM elsewhere in Table 6, read-out: IC50 MCF10A (head without unit)

| SMILES | MMS: Ratios of IC50 MCF10A [1] | IC50 [2, 5] | IC50 [2, 6] | % activity Inhibition hLigIII gel [3] | Mechanism: ligation step inhibited (3rd step) [4] | also measured |
| --- | --- | --- | --- | --- | --- | --- |
| O=C(Cn1cnc([N+](=O)[O-])n1)N/N=C/c1ccc(O)cc1O [Compound 151] | 1.8 | 6 µM | 6 µM | Ø |  | Radiosensitizers: IC50 ratios MCF10A [1]: 1; % growth inhibition MCF10A [2 Gy] 5-15 uM [1]: ✓ |
| O=C(O)CSc1cc(Cl)c2nonc2c1[N+](=O)[O-] [Compound 64] |  | 50 µM | 50 µM |  |  | IC50 ratios of non- and 3-AB treated cells MCF10A [1]: 2; Radiosensitizers: IC50 ratios MCF10A [1]: 1.2; potentiation of the growth inhibitory effect of 3 aminobenzamide ([2]; MCF10A cells, 3 aminobenzamide 2 mM, 5 days, MTT, FIG. 5B): markedly potentiates |
| Cc1c(Br)cc(NCC(=O)N/N=C\c2cc([N+](=O)[O-])ccc2O)cc1Br [Compound 67] | 1.2 | 4 µM | 4 µM |  | 3rd step | IC50 ratios of non- and 3-AB treated cells MCF10A [1]: 1.7; % growth inhibition MCF10A [2 Gy] 5-15 uM [1]: ✓ |
| C/C(O)=C1/C(=O)N(c2nc3ccccc3s2)N=C1c1ccccc1 [Compound 43] |  |  |  | Ø |  |  |
| COc1ccc(-c2cnc3c(O)nc(O)nc3n2)cc1 [Compound 190] |  |  |  | Ø |  |  |
| O=c1[nH]ncc(N/N=C\c2ccc(O)c([N+](=O)[O-])c2)c1Cl [Compound 82] |  |  |  |  | 3rd step | inhibition of step 3 of the ligation reaction ([4]; 100 μM, FIG. 3C): inhibit step 3 |
| Nc1nc(S)nc(O)c1/N=C/c1ccccc1 [Compound 189] |  |  |  |  | 3rd step |  |
| CS(=O)(=O)NNC(=O)C(=O)NNc1ccccc1 [Compound 184] |  |  |  | Ø |  |  |
| O=C1Nc2ccccc2Oc2cc([N+](=O)[O-])cc([N+](=O)[O-])c21 [Compound 180] | 1 | 3 µM | 3 µM |  |  |  |
| O=C(c1ccc(O)cc1)c1ccccc1O [Compound 200] | ID (1) | ~5 µM | 10 to 150 µM |  |  | IC50 ratios of non- and 3-AB treated cells MCF10A [1]: ID (1.2) |
| Cc1oc(C(=O)O)cc1CSCc1cc(C(=O)O)c(C)o1 [Compound 197] |  |  |  |  | 3rd step |  |
